Measurements: ChEMBL document CHEMBL5385849, “Discovery of 1-hydroxy-2-methylquinolin-4(1H)-one derivatives as new cytochrome bd oxidase inhibitors for tuberculosis therapy” (Eur J Med Chem, 2023)
Values after ≈ are worked out from the molar mass of the structure shown. Active and inactive are the calls of the source. The rule behind the calls is not given here.

Tests used:
[1] = tested on: Mycolicibacterium smegmatis; assay: Antimycobacterial activity against Mycobacterium smegmatis harboring deltaqcrCAB mutant assessed as reduction in bacterial growth incubated for 24 hrs by resazurin dye based analysis; type: functional
[2] = tested on: Mycolicibacterium smegmatis; assay: Antimycobacterial activity against wild type Mycobacterium smegmatis MC2155 assessed as reduction in bacterial growth incubated for 24 hrs by resazurin dye based analysis; type: functional
[3] = tested on: Mycolicibacterium smegmatis; assay: Inhibition of C-terminal his-tagged wild type Mycobacterium smegmatis MC2155 cytochrome bd oxidase assessed as reduction in oxygen consumption at 5 uM measured upto 4 days in presence of Aurachin D by Methylene blue dye based assay; conditions: time <= 4.0 day
[4] = tested on: Mycolicibacterium smegmatis; assay: Inhibition of C-terminal his-tagged wild type Mycobacterium smegmatis MC2155 cytochrome bd oxidase assessed as reduction in oxygen consumption at 5 uM measured upto 4 days by Methylene blue dye based assay; conditions: time <= 4.0 day
[5] = Binding affinity to C-terminal his-tagged Mycobacterium tuberculosis Cytochrome bd oxidase assessed as dissociation constant incubated for 5 to 10 mins by MST assay
[6] = tested on: Mycolicibacterium smegmatis; assay: (§1) Inhibition of C-terminal his-tagged wild type Mycobacterium smegmatis MC2155 cytochrome bd oxidase assessed as reduction in oxygen consumption at 25 uM measured upto 4 days by Methylene blue dye based assay; conditions: time <= 4.0 day
[7] = tested on: Mycolicibacterium smegmatis; assay: Antimycobacterial activity against Mycobacterium smegmatis harboring deltaqcrCAB mutant assessed as reduction in bacterial growth incubated for 2 days by resazurin dye based analysis; type: functional; conditions: 48 h, time 2 day
[8] = tested on: Mycolicibacterium smegmatis; assay: Inhibition of C-terminal his-tagged Mycobacterium smegmatis harboring deltaqcrCAB mutant inverted-membrane vesicle cytochrome bd oxidase assessed as reduction in oxygen consumption rate at 10 uM measured upto 4 days by Methylene blue dye based assay; type: cell membranes; conditions: time <= 4.0 day
[9] = tested on: Mycolicibacterium smegmatis; assay: Inhibition of C-terminal his-tagged Mycobacterium smegmatis harboring […] mutant inverted-membrane vesicle cytochrome bd oxidase assessed as reduction in oxygen consumption rate at 10 uM measured upto 4 days by Methylene blue dye based assay; type: cell membranes; conditions: time <= 4.0 day
[10] = tested on: Mycolicibacterium smegmatis; assay: as §1, with “days in presence of 6-chloro-2-ethyl-N-(4-(4-(4-(trifluoromethoxy)phenyl)piperidin-1-yl)benzyl)imidazo[1,2-a]pyridine-3-carboxamide” for “days”; conditions: time <= 4.0 day
[11] = tested on: Mycolicibacterium smegmatis; assay: Inhibition of C-terminal his-tagged wild type Mycobacterium smegmatis inverted-membrane vesicle cytochrome bd oxidase assessed as reduction in oxygen consumption rate at 10 uM measured upto 4 days by Methylene blue dye based assay; type: cell membranes; conditions: time <= 4.0 day

| Structure (SMILES) | MIC [1] [µM] | MIC [2] [µM] | also measured |
| --- | --- | --- | --- |
| Cc1c(Cc2ccc(N3CCN(c4ccc(OC(F)(F)F)cc4)CC3)cc2)c(=O)c2ccccc2n1O | 100 (≈ 51 µg/mL) | > 400 |  |
| Cc1c(Cc2ccc(I)cc2)c(=O)c2ccccc2n1O | 12.5 (≈ 4.89 µg/mL) | > 400 |  |
| CCc1nc2ccc(Cl)cn2c1C(=O)NCc1ccc(N2CCC(c3ccc(OC(F)(F)F)cc3)CC2)cc1 |  |  | inhibition [3]: Active; inhibition [4]: inactive |
| CCc1ccccc1Cc1c(C)n(O)c2ccccc2c1=O | 50 (≈ 14.7 µg/mL) | > 400 |  |
| CN(C(=O)c1c(O)c2ccccc2n(C)c1=O)c1ccccc1 [ROQUINIMEX] | 260 (≈ 80.2 µg/mL) |  | Kd [5]: 13 µM |
| CC(C)=CCC/C(C)=C/CC/C(C)=C/Cc1c(C)[nH]c2ccccc2c1=O [AURACHIN D] | 6.25 (≈ 2.27 µg/mL) |  | inhibition [6]: inactive |
| Cc1c(-c2cnn(Cc3ccc(OC(F)(F)F)cc3)c2)c(=O)c2ccccc2n1O | > 400 | > 400 |  |
| Cc1c(Cc2ccccc2F)c(=O)c2ccccc2n1O | 50 (≈ 14.2 µg/mL) | > 400 |  |
| Cc1[nH]c2ccccc2c(=O)c1-c1cnn(Cc2ccc(OC(F)(F)F)cc2)c1 | > 400 | > 400 |  |
| Cc1c(Cc2ccc(N3CCN(C)CC3)cc2)c(=O)c2ccccc2n1O | > 400 | > 400 |  |
| Cc1c(Cc2ccccc2OC(F)(F)F)c(=O)c2ccccc2n1O | 3.1 (≈ 1.08 µg/mL) | > 400 | Kd [5]: 165 µM; MIC [7]: 6.25 µM (≈ 2.18 µg/mL) |
| Cc1c(Cc2ccccc2Br)c(=O)c2ccccc2n1O | 50 (≈ 17.2 µg/mL) | > 400 |  |
| Cc1c(Cc2ccc(Br)cc2)c(=O)c2ccccc2n1O | 6.25 (≈ 2.15 µg/mL) | > 400 |  |
| Cc1c(Cc2ccccc2)c(=O)c2ccccc2n1O | 50 (≈ 13.3 µg/mL) | > 400 |  |
| Cc1c(Cc2ccc(OC(F)(F)F)cc2)c(=O)c2ccccc2n1O | 6.25 (≈ 2.18 µg/mL) | > 400 | inhibition [8]: 86%; inhibition [9]: inactive; inhibition [10]: Active; inhibition [11]: 74%; Kd [5]: 4.17 µM; MIC [7]: 6.25 µM (≈ 2.18 µg/mL); inhibition [6]: inactive |
| Cc1c(Cc2ccc(Cl)cc2)c(=O)c2ccccc2n1O | 6.25 (≈ 1.87 µg/mL) | > 400 |  |
| Cc1[nH]c2ccccc2c(=O)c1Cc1ccc(OC(F)(F)F)cc1 | 50 (≈ 16.7 µg/mL) | > 400 |  |
| Cc1ccccc1Cc1c(C)n(O)c2ccccc2c1=O | 25 (≈ 6.98 µg/mL) | > 400 |  |
| Cc1c(Cc2ccccc2C(F)(F)F)c(=O)c2ccccc2n1O | 50 (≈ 16.7 µg/mL) | > 400 |  |
| COc1ccccc1Cc1c(C)n(O)c2ccccc2c1=O | 25 (≈ 7.38 µg/mL) | > 400 |  |
| CC(C)(C)c1cc(C(C)(C)C)c(NC(=O)c2c[nH]c3ccccc3c2=O)cc1O [IVACAFTOR] | 51 (≈ 20 µg/mL) |  | Kd [5]: 40 µM |
| Cc1c(Cc2ccccc2Cl)c(=O)c2ccccc2n1O | 50 (≈ 15 µg/mL) | > 400 |  |
